Literature values, collected in patent US20160374912A1, “TOPICALLY APPLICABLE CHEMICAL PEEL COMPOSITION” (L'OREAL, priority 2015, published 2016).

Assays:
[1] = not given; remark: listed apart in the source

Row | Compound | pKA | Log P [1]
1 | Oc1cccc(O)c1 [Resorcinol] | 9.32-9.81 | 2.47
2 | CC(c1ccccc1)c1ccc(O)cc1O (stereo not shown) [Phenylethyl Resorcinol] | 9.77-10.77 | 2.11
